Test results published in patent publication US8318105B2, “Systems and methods for biomarker analysis” (priority 2010, dated 2012).
Several values for one entry are separate records, joined by “and”; a condition that tells them apart may be missing. Equal values may be shown once.

Columns and labels:
peroxidase = experiment: Peroxidase assay in saliva (Amplex Red); assay type: biochemical; details: compound prepared at 500 ppm, 30 minutes, FIGS. 26-29
Experimental: To determine the effect of various GRAS compounds as inhibitors of peroxidase activity, a standard assay using Amplex® Red (Life Technologies), which releases a fluorescent oxidation product.
The test compounds, such as GRAS materials or cocktails of same, were prepared at a concentration of 500 ppm in distilled water. For the assay, 50 μl samples of test compounds were mixed with 20-30 μl of saliva (either “pooled” or “unpooled”) prior to the addition of Amplex® Red. […] Reactions were allowed to run for 30 minutes during these assays.

α-amylase = target: T1, α-amylase (Homo sapiens, UniProt P0DUB6); experiment: α-Amylase inhibition saliva screening (chromogenic substrate, absorbance 405 nm); assay type: biochemical; details: test compound prepared at 5,000 ppm, 37° C.; for absorbance at 405 nm, single readings: four replicate readings
T1 sequence (P0DUB6 16-511): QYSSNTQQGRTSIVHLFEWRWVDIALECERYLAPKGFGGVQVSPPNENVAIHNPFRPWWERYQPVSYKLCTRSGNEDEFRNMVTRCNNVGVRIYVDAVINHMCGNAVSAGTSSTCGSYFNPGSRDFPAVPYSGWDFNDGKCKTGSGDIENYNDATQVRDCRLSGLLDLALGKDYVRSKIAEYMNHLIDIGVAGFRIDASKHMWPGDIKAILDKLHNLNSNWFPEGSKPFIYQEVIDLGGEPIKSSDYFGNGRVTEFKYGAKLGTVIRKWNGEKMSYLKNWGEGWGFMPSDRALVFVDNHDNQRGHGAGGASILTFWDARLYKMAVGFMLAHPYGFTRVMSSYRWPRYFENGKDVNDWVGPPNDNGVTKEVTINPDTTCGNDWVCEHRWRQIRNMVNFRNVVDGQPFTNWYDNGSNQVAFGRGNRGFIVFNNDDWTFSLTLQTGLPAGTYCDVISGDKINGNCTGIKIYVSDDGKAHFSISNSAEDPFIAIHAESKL
Text: Further details of these five compounds may also be seen in Table 4.

protease = details: natural protease inhibitors from food; cited from earlier work

Cn1c(=O)c2c(ncn2C)n(C)c1=O [CDI #33, Caffeine]
peroxidase inhibition (peroxidase): significant peroxidase inhibition capabilities

Aluminum sulfate hydrate [CDI-34]
Ave (absorbance at 405 nm) (α-amylase; 0 min): 0.40
absorbance at 405 nm, single readings (α-amylase; 0 min, sulfate hydrate): 0.40 (2×) and 0.36 and 0.45
Ave (absorbance at 405 nm) (α-amylase; 5 min): 0.50
absorbance at 405 nm, single readings (α-amylase; 5 min, sulfate hydrate): 0.49 and 0.50 (2×) and 0.52
Ave (absorbance at 405 nm) (α-amylase; 15 min): 0.56
absorbance at 405 nm, single readings (α-amylase; 15 min, sulfate hydrate): 0.53 and 0.61 and 0.54 and 0.56

Aluminum potassium sulfate dodecahydrate [CDI-42]
Ave (absorbance at 405 nm) (α-amylase; 0 min): 0.92
absorbance at 405 nm, single readings (α-amylase; 0 min): 0.80 and 1.13 and 0.90 and 0.84
absorbance at 405 nm, single readings (α-amylase; 5 min): 1.65 and 2.15 and 1.80 and 1.81
absorbance at 405 nm, single readings (α-amylase; 15 min): 2.37 and 2.38 and 2.25 and 2.17
peroxidase inhibition (peroxidase): significant peroxidase inhibition capabilities

COc1ccc(O)c(C(C)(C)C)c1 [CDI-039, 3-tert--butyl-hydroxyanisole]
peroxidase inhibition (peroxidase): significant peroxidase inhibition capabilities

B1: Soybeans: primary soybean protease inhibitor, 20.7-22.3 kDa (protein, UniProt P01070 25-205, looked up)
Trypsin inhibitor A: DFVLDNEGNPLENGGTYYILSDITAFGGIRAAPTGNERCPLTVVQSRNELDKGIGTIISSPYRIRFIAEGHPLSLKFDSFAVIMLCVGIPTEWSVVEDLPEGPAVKIGENKDAMDGWFRLERVSDDEFNNYKLVFCPQQAEDDKCGDIGISIDHDDGTRRLVVSKNKPLVVQFQKLDKESL
Inhibitory power (protease): 1.2 times times weight
